The subject of one data set is Saccharomyces cerevisiae. The data set can be described thus: Inhibition of yeast glutathione reductase assessed as reduction of glutathione disulfide up to 250 uM by spectrophotometrically.
In another data set the target is Trypanothione reductase (Trypanosoma cruzi, UniProt P28593). The data set can be described thus: Inhibition of Trypanosoma cruzi trypanothione reductase assessed as reduction of trypanothione disulfide by spectrophotometrically.
The test system of data set [1] is Trypanosoma brucei brucei. The data set can be described thus: Trypanocidal activity against drug-sensitive Trypanosoma brucei brucei Lab 110 EATRO assessed as inhibition of trypanosomes after 48 hrs. Format: functional, organism-based.
A further data set has as its system Trypanosoma brucei. The data set can be described thus: Trypanocidal activity against bloodstream form of Trypanosoma brucei assessed as inhibition of trypanosomes after 48 hrs. Format: functional, organism-based.
Data set [2] has as its system Trypanosoma brucei rhodesiense. Nature of the data set: Trypanocidal activity against clinical isolate Trypanosoma brucei rhodesiense KETRI 243 assessed as inhibition of trypanosomes after 48 hrs. It counts as functional, organism-based. The following applies: KETRI 243, 48 h.
For data set [3], the system named is Trypanosoma brucei rhodesiense. The data set can be described thus: Trypanocidal activity against clinical isolate Trypanosoma brucei rhodesiense KETRI 269 assessed as inhibition of trypanosomes after 48 hrs. Format: functional, organism-based. To be noted: KETRI 269, 48 h.
Data set [4] deals with Trypanosoma brucei brucei. Nature of the data set: In vivo trypanocidal activity against drug-sensitive Trypanosoma brucei brucei Lab 110 EATRO infected in female Swiss-Webster mouse assessed as life prolongation at 1 to 25 mg/kg, ip once daily for 3 days relative to control. Format: functional, organism-based.
In data set [5] the test system is Trypanosoma brucei rhodesiense. The data set can be described thus: Trypanocidal activity against pentamidine and melarsoprol-resistant Trypanosoma brucei rhodesiense K 243-As-10-3 assessed as inhibition of trypanosomes after 48 hrs. The following applies: K 243-As-10-3, 48 h. Format: functional, organism-based.
In data set [6] the test system is Mus musculus. The data set can be described thus: Toxicity in drug-sensitive Trypanosoma brucei brucei Lab 110 EATRO infected in female Swiss-Webster mouse assessed as death at 1 to 25 mg/kg, ip once daily for 3 days relative to control. It counts as organism-based. Details: dose 1-25 mg/kg, route intraperitoneal. The following applies: in vivo, 72 h.
Data set [7] concerns Trypanosoma brucei brucei. The data set can be described thus: In vivo trypanocidal activity against drug-sensitive Trypanosoma brucei brucei Lab 110 EATRO infected in female Swiss-Webster mouse assessed as life prolongation at 50 mg/kg, ip administered in 2 daily doses for 3 days relative to control. Details: dose 50 mg/kg. It counts as functional, organism-based.
The test system of data set [8] is Mus musculus. Nature of the data set: Toxicity in drug-sensitive Trypanosoma brucei brucei Lab 110 EATRO infected in female Swiss-Webster mouse assessed as death at 50 mg/kg, ip once daily for 3 days relative to control. The following applies: in vivo, 72 h. It counts as organism-based. Details: dose 50 mg/kg, route intraperitoneal.

The structures appear in SMILES notation. pEC50, pIC50, pKi: −log10 of the molar value. Calls of active or inactive are those of the source. The calls are words filed in the database; no cut-off is given here.

Sequence of Trypanothione reductase (P28593 whole entry): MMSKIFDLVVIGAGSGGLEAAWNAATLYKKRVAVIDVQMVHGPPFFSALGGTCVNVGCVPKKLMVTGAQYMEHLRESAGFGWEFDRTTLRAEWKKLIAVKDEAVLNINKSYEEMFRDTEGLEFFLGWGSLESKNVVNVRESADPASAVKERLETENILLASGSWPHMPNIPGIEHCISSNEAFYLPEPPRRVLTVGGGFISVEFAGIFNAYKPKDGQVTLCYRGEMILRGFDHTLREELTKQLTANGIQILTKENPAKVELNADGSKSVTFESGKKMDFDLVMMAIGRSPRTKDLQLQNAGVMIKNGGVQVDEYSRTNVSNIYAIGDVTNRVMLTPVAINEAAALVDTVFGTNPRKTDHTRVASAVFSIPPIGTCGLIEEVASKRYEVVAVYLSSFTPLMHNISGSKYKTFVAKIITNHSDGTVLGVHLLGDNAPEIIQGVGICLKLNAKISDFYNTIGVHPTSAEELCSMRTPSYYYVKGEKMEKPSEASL

`CN(C)CCCNC1c2ccccc2CCc2ccccc21`: the inhibition entry in the data set on Saccharomyces cerevisiae was “inactive”. The pKi (commonly −log10 of the Ki, conventionally taken in molar units) on Trypanothione reductase is 4.09. The pIC50 (usually the IC50 on a negative log10 scale, so that one unit is a factor of ten) in data set [1] was 5.86.
As for `CN(C)CCCN1c2ccccc2CCc2ccc(Cl)cc21` [CLOMIPRAMINE], the inhibition entry in the data set with Saccharomyces cerevisiae is “inactive”. Besides, the pEC50 (as a rule, the EC50 on a negative log10 scale, so that one unit is a factor of ten) in the data set on Trypanosoma brucei is 5.30.
For the compound `NCCN(CCN)C1c2ccccc2CCc2ccccc21`, the inhibition entry in the data set on Saccharomyces cerevisiae was “inactive”. The pKi on Trypanothione reductase was 4.55. The pIC50 in data set [1] was 5.55.
In the case of `CN(C)CCNC1c2ccccc2CCc2ccccc21`, the inhibition result in the data set with Saccharomyces cerevisiae is “inactive”. In addition, the values for the pIC50 in [2] and in [1] were 5.70 and 5.77, respectively. For the same compound, the pKi at Trypanothione reductase is 3.87.
As for `NCCCCN(CCCN)C1c2ccccc2CCc2ccccc21`, in the data set with Saccharomyces cerevisiae, the inhibition entry was “inactive”. For the same compound, the pIC50 in data set [2] was 5.35; in [3], 5.37; in [5], 5.08; in [1], 6.21. Also, the pKi on Trypanothione reductase was 5.40. In addition, in data set [4], the result was inactive. The Activity entry in the data set on Mus musculus [6] is “Toxic”.
As for `NCCCN(CCCN)C1c2ccccc2CCc2ccccc21`, the inhibition result with Saccharomyces cerevisiae was “inactive”. In addition, at Trypanothione reductase, the pKi was 5.12.
On to `NCCCN(CCCCN(CCCN)C1c2ccccc2CCc2ccccc21)C1c2ccccc2CCc2ccccc21`, for which the inhibition entry with Saccharomyces cerevisiae is “inactive”. Further, the pIC50 in data set [2] is 5.82; in data set [3], 5.77; in [5] it was 4.66; in data set [1] it was 5.59. Besides, in [7], the outcome was Active. For the same compound, the negative logarithm of the Ki (pKi) at Trypanothione reductase is 6.59. For the same compound, the Activity result with Mus musculus [8] is listed as “Toxic”.

For the origin of these results see ChEMBL document CHEMBL3396948 (Bioorg Med Chem, 2015).
